Patent US20260035670A1, “IN VITRO CONSTRUCT USEFUL FOR DRUG TOXICITY SCREENING” (Wake Forest University Health Sciences, priority 2022, published 2026)

What was measured:
[1] = test system: USC in 3D spheroids; assay: mtDNA content (q-PCR) and mitochondrial mass of USC in 3D spheroids treated with ddC; type: cell-based, human
Experimental: (§1) To determine the dose effect of ddC on cell viability, mitochondrial function and oxidative stress of USC in both 3D cultures, ddC was added to spheroids and USC-SFM at different doses: 0.2, 2 and 10 μM in the culture medium every 2 days, 3 replicates per concentration. To evaluate the time-dependent effect of ddC on USC in 3D cultures, spheroids and USC-SFM samples were assayed 2-6 weeks after administering ddC, 3 replicates per time point. DMSO (0.1%) was used as a control.
(§2) To measure the levels of cell senescence genes ([…], 21 and Rb) (Kang et al. Science 349 (2015) aaa5612) and mitochondrial DNA (mtDNA) content, mRNA expression of spheroid (n ¼ 3) and 3D USC-SFM (n ¼ 3) samples were assessed using BioRad CFX connect Real-time PCR Detection System (Rooney et al. Methods Mol. Biol. 1241 (2015) 23e38). Genomic DNA was extracted from the cells using a DNeasy Blood & Tissue Kit (Qiagen, Valencia, Cat. No 69504) according to the manufacturer's protocol. The Q-PCR recipe was a mix with SYBR Green SuperMix (ThermoFisher, USA, Cat. No 4367659) using both the mitochondrial and the nuclear primers, and this temperature cycling was used: initial denaturing at 50° C. for 2 min, 95° C. for 15 min, followed by 40 cycles of denaturing at 95° C. for 30 s, annealing at 60° C. for 1 s and extension at 95° C. for 15 s, 60° C. for 1 min, annealing at 95° C. for 15 s, 60° C. for 1 min and dissociating at 95° C. for 15 s.

[2] = test system: oxidative phosphorylation complexes I-V in USC of 3D USC-SFM; assay: Oxidative phosphorylation complexes I-V in 3D USC-SFM after ddC (Western blot); type: cell-based, human
Experimental: as §1, with “0.2, 2 and 10 μM in the culture medium every” left out
(§3) To generate sufficient cell numbers for immunoblot analysis, USC (5×10^5 cells) within spheroids and 1-SFM were loaded in 81-well molds made by Micro-Tissues 3D Petri Dish (Sigma, USA). USC in 2D culture were seeded onto a 6-well plate at a density of 5×10^5 cells/well as control. After a wash of the cell samples with PBS, the USC were harvested and incubated for 30 min in the presence of […] of lysis buffer (Pierce, Rockford, IL) with 1% protease/phosphatase inhibitor cocktail (Cell Signaling Technology, Danvers, MA), vortexing every 5 min during incubating. The lysate was clarified by centrifugation, and protein concentrations were tested by Pierce™ BCA Protein Assay Kit. Following separation in 15% SDS-PAGE gels, the proteins were transferred onto a PVDF membrane (ThermoFisher) by a Bio-Rad Trans-Blot SD Semi-Dry Transfer Cell under 12 V for 1 h.
(§4) Individual activity of oxidative phosphorylation complexes I, II, II IV, V94 and mitochondrial SOD2 in USC before or after treatment with ddC at three doses were assessed. The membrane was blocked for 30 min in PBS-0.1% Tween 20 (PBST) containing 5% bovine serum albumin (BSA), washed with PBST, and incubated with the primary antibodies for 2 h or 4° C. overnight, diluted by PBST containing 5% BSA. After extensive washing with PBST, the membrane was incubated in the secondary antibodies correspondingly for 1 h at room temperature. The washed membrane was treated with an Immobilon ECL Ultra Western HRP Substrate (Millipore Sigma) and analyzed with a Fujifilm LAS-3000 Luminescent Image Analyzer system.

[3] = test system: USC in 3D silk fiber matrix (3D USC-SFM); assay: mtDNA content (q-PCR) and mitochondrial mass of USC in 3D USC-SFM treated with ddC; type: cell-based, human
Experimental: as §1, with “0.2, 2 and 10 μM in the culture medium every” left out
as §2

[4] = test system: USC in 2D culture; assay: Cell viability and growth of USC in 2D culture treated with ddC; type: cell-based, human
Experimental: Cell proliferation or viability was measured at different time points after USC were seeded on 2D, spheroids and 3D-SFM in 96-well plates, respectively, assessed by Cell Counting Kit-8 (CCK-8 assay, Dojindo, Japan), according to manufacturer's instructions. The absorbance at 450 nmwas measured using microplate reader (MultiSkan FC, Thermo, USA).

[5] = test system: USC in 3D USC-SFM; assay: Cell viability/growth of 3D USC-SFM treated with ddC (CCK-8); type: cell-based, human
Experimental: as §1, with “Cell proliferation or viability was measured at different time points after USC were seeded on 2D, spheroids and 3D-SFM in 96-well plates, respectively, assessed by Cell Counting Kit-8 (CCK-8 assay, Dojindo, Japan), according to manufacturer's instructions. The absorbance at 450 nmwas measured using microplate reader (MultiSkan FC, Thermo, USA). To determine” for “To determine”

[6] = test system: oxidative phosphorylation complexes I-V in USC of 3D spheroids; assay: Oxidative phosphorylation complexes I-V in 3D USC spheroids after ddC (Western blot); type: cell-based, human
Experimental: as §1, §3, §4

[7] = test system: microglia cells; details: George et al. 2021; cited from earlier work
[8] = Gorwood et al. 2020; cited from earlier work
[9] = test system: CD4+ T cells; details: Korencak et al. 2019; cited from earlier work
[10] = 3D spheroids, six weeks after ddC (0.2, 2, and 10 µM), vs 0.1% DMSO control
[11] = 3D USC-SFM, six weeks after ddC (0.2, 2, and 10 μM), vs 0.1% DMSO control

## Nc1ccn([C@H]2CC[C@@H](CO)O2)c(=O)n1 [ddC, Zalcitabine]
[1]; 3D spheroid of USC, 2 and 6 weeks, ddC 0.2, 2, or 20 μM, vs DMSO standardized as 100%
  Levels of mtDNA content: significantly decreased
[1]; 3D spheroids of USC, q-PCR
  Manner of decrease of mtDNA content: dose-dependent manner
[1]; [10]
  mitochondrial mass: significantly decreased
  mtDNA content: significantly decreased
[2]; 2 weeks, ddC 2 and 10 μM vs low dose (0.1 μM)
  levels of complex I, and IV: significantly decreased
[2]; 3D SFM
  mitochondrial toxicity (decreasing levels of complexes I-IV): significant dose- and time-dependent
[2]; 3D SFM-USC treated with ddC
  Levels of complexes I, II, and III: significantly decreased
[2]; 3D USC-SFM compared to complex levels in spheroids
  levels of complexes II, III and IV: significantly decreased
[2]; 3D USC-SFM model
  chronic MtT: dose- and time-dependent chronic MtT displayed
[2]; 3D USC-SFM, ddC 2 and 10 μM, 6 weeks compared to 2 weeks
  complex I-IV levels: significantly decreased
[2]; 3D USC-SFM, low dose ddC
  increase of levels of complexes I, II and IV: did not occur
[2]; 3D culture models
  mitochondrial function (inhibiting oxidative phosphorylation complex I-IV): significant impairment
[2]; 6 weeks, middle and high dose ddC vs low dose
  levels of complex I, II, III and IV: significantly declined
[2]; USC-SFM, ddC middle and high doses vs low dose, week 6
  activity of complex II-IV: significantly decreased
[2]; USC-SFM, ddC middle and high doses, wk 6
  expression of ETC complex I-IV: decrease
[3]; 3D USC-SFM, 2 and 6 weeks, ddC 0.2, 2, or 20 μM, vs DMSO standardized as 100%
  Levels of mtDNA content: significantly decreased
[3]; 3D USC-SFM, q-PCR
  Manner of decrease of mtDNA content: time-depended manner
[3]; [11]
  mitochondrial mass: significantly decreased
  mtDNA content: significantly decreased
[3]; ddC at 2 or 20 μM compared to 0.1 μM ddC, 3D culture of USC (model not given)
  mtDNA content: significantly inhibited
[4]
  cell viability and growth of USC: significantly affected
[4]; 2 weeks after ddC treatment
  cells remaining on the dishes: few cells remaining
[5]; 3D USC-SFM, 3 days, or 1, 2, 4, and 6 weeks
  cell survival and growth: did not significantly affect
[5]; USC in 3D cultures
  cytotoxicity: mild
[6]; 3D organoids, ddC middle and high doses, wk 6
  expression of ETC complex I-IV: decrease
[6]; 3D spheroids, low dose ddC
  levels of complexes I, II and IV: significantly increased
[6]; spheroids
  mitochondrial toxicity (decreasing levels of complexes I-IV): significant dose- and time-dependent
[6]; spheroids treated with ddC
  complex I level (only complex affected): declined

## C[C@@H]1CCO[C@H]2Cn3cc(C(=O)NCc4ccc(F)cc4F)c(=O)c(O)c3C(=O)N12 [dolutegravir]
[7]
  mitochondrial dysfunction: induces mitochondrial dysfunction
[8]
  pro-adipogenic and pro-lipogenic effects, oxidative stress, mitochondrial dysfunction, insulin resistance: display pro-adipogenic and pro-lipogenic effects, and promote oxidative stress, mitochondrial dysfunction, and insulin resistance
[9]
  levels of mitochondrial ROS and mitochondrial mass: increased

## COc1cc2c(cc1Cc1cccc(Cl)c1F)c(=O)c(C(=O)O)cn2[C@H](CO)C(C)C [elvitegravir]
[9]
  levels of mitochondrial ROS and mitochondrial mass: increased
